Data: patent US20250326792A1, “A FORMULATION FOR TREATMENT OF PIGMENTARY DISORDERS” (priority 2022, published 2025)

Columns and labels:
[1] = test system: B16F10 cells; assay: Melanin content assay in B16F10 cells; assay type: cell-based; conditions: B16F10 CELLS; 100 μM
Method: (§1) Culture and maintenance of cell lines: B16F10 cells were cultured in RPMI containing 10% fetal bovine serum, 100 units per millilitre (U/mL) penicillin, 0.1 mg/mL streptomycin, and 0.25 microgram per millilitre (μg/mL) amphotericin B at 37 degrees Celsius in a humidified 95% air/5% CO2 incubator. Drug treatment was done 24 hours after seeding. Cells were harvested 48 hours later and melanin content and tyrosinase activity determined in triplicate. NHEM cells were cultured in DMEM containing 10% fetal bovine serum, 100 units per milliliter (U/mL) penicillin, 0.1 mg/mL streptomycin, and 0.25 microgram per millilitre (μg/mL) amphotericin B at 37 degrees Celsius in a humidified 95% air/5% CO2 incubator. Drug treatment was done 24 hours after seeding. Cells were harvested 48 hours later and melanin content and tyrosinase activity determined in triplicate.
(§2) IS103 was dissolved in water for injection or DMSO to prepare stock solution of about 50 mg/ml. The stock solution was used for preparation of subsequent dilutions in solvent to achieve working dilutions for treatment ranging 0.1 μg/ml to 1000 μg/ml.
Cells were seeded in a 6-well plate (2×10^4 cells/well) and incubated overnight to allow the cells to adhere. After treating with various test samples for 4 or 5 days, cells were washed with phosphate-buffered saline (PBS), trypsinized, counted, and then lysed in 1 N NaOH at 100° C. for about 1 hour. The melanin content in each sample was calculated by comparison of absorbance at 400 nm of unknown samples with a standard curve obtained using synthetic melanin. […] B16F10 and NHEM cells were treated with different concentrations of IS103 ranging from 0.1 to 1000 μg/ml and analysed melanin contents in cells. […] To assess the toxicity of the IS103 peptide, cell viability was analyzed by MTT assay.

[2] = test system: NHEM cells; assay: Melanin content assay in NHEM cells; assay type: cell-based, Human; conditions: NHEM CELLS
Method: as §1, §2
Cells were seeded in a 6-well plate (2×10^4 cells/well) and incubated overnight to allow the cells to adhere. After treating with various test samples for 4 or 5 days, cells were washed with phosphate-buffered saline (PBS), trypsinized, counted, and then lysed in 1 N NaOH at 100° C. for about 1 hour. The melanin content in each sample was calculated by comparison of absorbance at 400 nm of unknown samples with a standard curve obtained using synthetic melanin. IS103 enhances melanin synthesis in a dose dependent manner without significant toxicity. B16F10 and NHEM cells were treated with different concentrations of IS103 ranging from 0.1 to 1000 μg/ml and analysed melanin contents in cells. It was observed that IS103 was able to enhance pigmentation of B16F10 and NHEM cells in a dose-dependent manner (Table 18 and FIGS. 4 and 5). […] To assess the toxicity of the IS103 peptide, cell viability was analyzed by MTT assay.

[3] = test system: Tyrosinase; assay: Tyrosinase activity assay (L-DOPA) in B16F10 cells; assay type: cell-based; conditions: for increase in Tyrosinase activity when compared to control: B16F10 cells, positive control
Method: as §1, §2
(§3) Tyrosinase activity was determined using L-DOPA as a substrate. Briefly, B16F10 and NHEM cells were seeded in a 6-well plate (2×10^4 cells/well) and incubated for overnight. The cells were then treated with or without the test compounds for 46 hours and were washed twice with ice cold PBS and extracted by sonication in 100 μl of 0.1M Tris-HCl buffer (pH 7.2) containing 1% Nonidet P-40, 0.01% SDS, 100 μM phenyl methyl sulfonyl fluoride, and 1 μg/ml aprotinin and then centrifuged at 10,000 g for about 10 minutes at 4° C. The supernatants collected were used for enzyme assay and its protein content was estimated by method of Bradford using BSA as standard. Samples of cell extract supernatant were incubated in duplicate for 1 hour at 37° C. in 1 ml of 0.1M sodium phosphate buffer (pH 7.4) containing 0.1% L-DOPA. The absorbance was then monitored at 450 nm and compared with purified mushroom tyrosinase (Sigma). The standard curve was prepared limiting linearity within the range of experimental value.

[4] = test system: Tyrosinase; assay: Tyrosinase activity assay (L-DOPA) in NHEM cells; assay type: cell-based, Human; conditions: for increase in Tyrosinase activity when compared to control: NHEM cells, positive control
Method: as §1, §2, §3

[5] = TYROSINASE ACTIVITY table, B16F10 CELLS, 100 μM
[6] = TYROSINASE ACTIVITY table, NHEM CELLS, 100 μM

Row | Compound | % increase in melanin content compared to control [1] [%] | Fold change in melanin content [1] | % increase in melanin content compared to control ([2]; 100 μM) [%] | Fold change in melanin content ([2]; 100 μM) | increase in Tyrosinase activity when compared to control ([3]; 100 μM) [%] | % increase in tyrosinase activity compared to control [3, 5] [%] | Change in tyrosinase activity [3, 5] | increase in Tyrosinase activity when compared to control ([4]; 100 μM) [%] | % increase in tyrosinase activity compared to control [4, 6] [%] | Tyrosinase activity [4, 6] | % increase in melanin content compared to control ([2]; 100 nM) [%] | increase in Tyrosinase activity when compared to control ([3]; 100 nM) [%] | % increase in tyrosinase activity compared to control ([3]; TYROSINASE ACTIVITY table, B16F10 CELLS, 100 nM) [%] | increase in Tyrosinase activity when compared to control ([4]; 100 nM) [%] | % increase in tyrosinase activity compared to control ([4]; TYROSINASE ACTIVITY table, NHEM CELLS, 100 nM) [%]
1 | CC(C)Cn1c(=O)n(C)c(=O)c2[nH]cnc21 [IBMX, 3-isobutyl-1-methylxanthine, reference compound] | 180 | 2.8 ± 0.20 | 160 | 2.6 ± 0.20 | 59 | 59 | 74.0 ± 5.10 | 56 | 56 | 70.3 ± 4.20 |  |  |  |  | 
2 | α-Melanocyte Stimulating Hormone [α-MSH, reference compound] |  |  |  |  |  |  |  |  |  |  | 190 | 57.33 | 57.33 | 56.33 | 56.33
